In patent publication US12263177B2, “Biologically active ganoderma lucidum compounds and synthesis of anticancer derivatives; ergosterol peroxide probes for cellular localization” (priority 2019, dated 2025):
Where two headings read alike, the source gives them in different places.

Experiments:
[1] = test system: MDA-MB-231; test: Cytotoxicity of EP probes via CTG assay; format: cell-based, human; conditions: read-out: MDA-MB231 EC50
Protocol: (§1) For the CTG assay, 3 or 4 replicate assays were conducted for each experimental condition, and a minimum of 3 independent experiments were conducted for cellular assays. The mean luminescence of each experimental treatment group was normalized as a percentage of the mean intensity of untreated controls. EC50 values (μM) were calculated by Pipeline Pilot Software (Accelrys, Enterprise Platform, CA, USA). EC50 values (μM) from the viability assay were calculated from dose response curve-fitting via non-linear regression by using GraphPad Prism (Version 7.0 San Diego, CA).

[2] = test system: T47D; test: Cytotoxicity of EP probes via CTG assay; format: cell-based; conditions: 72 hr
Protocol: as §1

[3] = test system: HMEC; test: Cytotoxicity of EP probes via CTG assay, normal cells; format: cell-based; conditions: 72 hr
Protocol: as §1

[4] = test system: MDA-MB-231, SUM-149, T47D; test: Cytotoxicity of EP analogues via CTG assay, comparison across cell lines; conditions: 72 hr
Protocol: To better understand the structure-activity-relationship of EP, its core was modified at the C3 position of the steroid backbone. […] Both normal cell lines HMEC and BJ cells were also evaluated to determine therapeutic index.
Either 1×10^3-4.8×10^3 or 4×10^2-1.2×10^3 cells were seeded to each well of 96- or 384-well white polystyrene flat-bottomed plates (3610 or 8804BC, Corning) in 100 μL or 30 μL media per well, respectively. The concentrations used were experimentally determined to ensure logarithmic growth during the duration of the experiment and prevent adverse effects on cell growth by DMSO exposure. The plates were incubated at 37° C. in 5% CO2 for 24 h before treatment. Stock solutions of test compounds (10 mM in DMSO) in nine 3-fold serial dilutions were dispensed via pintool (Biomek). The final concentration of DMSO was 0.3% (v/v) in each well. The plates were incubated for 72 h at 37° C. in 5% CO2 and then quenched with CellTiter-Glo® reagent (50 μL/well in 96-well plate, 30 μL/well in 384-well plate) at RT. The positive controls included staurosporine (10 μM), gambogic acid (10 μM), and a toxic quinoline generated in-house. Plates were then incubated at RT for 20 min and centrifuged at 1000 rpm for 1 min. The cytotoxicity assay was performed by using the CellTiterGlo Luminescent Cell Viability Assay kit (G7570, Promega, Madison, WI) according to the manufacturer's instructions. Luminescence was recorded in an Envision plate reader (Perkin Elmer).

[5] = test system: SUM-149; test: Cytotoxicity of EP probes via CTG assay; format: cell-based, human
Protocol: as §1

[6] = test system: various breast cancer cell lines; test: Cell viability assay, breast cancer cell line panel; format: cell-based
Protocol: Different concentrations of GLE-extracted bioactive chemical components were tested for 72-h treatment periods.
as §1

[7] = Homo sapiens, MDA-MB-231, 72 hr

SMILES	EC50 ([1]; 72 hr)	EC50 [2]	EC50 [3]	cytotoxicity compared with parental compound 3 (in words) [4]	EC50 ([5]; 72 hr, read-out: SUM149 EC50)	EC50 [1, 7]	EC50 ([3]; Homo sapiens, HMEC)	EC50 ([5]; Homo sapiens, SUM149, 72 hr)	activity at the tested concentrations in the evaluated cell lines [6]
CC(C)C(C)C=CC(C)C1CCC2C1(C)CCC1C23C=CC2(CC(=O)CCC12C)OO3 (stereo not shown) [3a]	7 µM	10 µM	> 13 µM	improved activity	5 µM	–	–	–	–
CC(C)C(C)C=CC(C)C1CCC2C1(C)CCC1C23C=CC2(CC(OC(=O)CCl)CCC12C)OO3 (stereo not shown) [3c]	> 20 µM	> 20 µM	> 20 µM	promising activity against SUM-149 with little or no activity observed at the tested concentrations in MDA-MB-231 and T47D	5 µM	–	–	–	–
CC(C)C(C)C=CC(C)C1CCC2C1(C)CCC1C23C=CC2(CC(OC(=O)CN=[N+]=[N-])CCC12C)OO3 (stereo not shown) [3d]	> 20 µM	> 20 µM	> 20 µM	promising activity against SUM-149 with little or no activity observed at the tested concentrations in MDA-MB-231 and T47D	10 µM	–	–	–	–
C#CCOC1CCC2(C)C3CCC4(C)C(C(C)C=CC(C)C(C)C)CCC4C34C=CC2(C1)OO4 (stereo not shown) [3e]	16 µM	> 20 µM	> 20 µM	better activity	10 µM	–	–	–	–
CCOP(=O)(COC1CCC2(C)C3CCC4(C)C(C(C)C=CC(C)C(C)C)CCC4C34C=CC2(C1)OO4)OCC (stereo not shown) [3f]	9 µM	> 20 µM	> 20 µM	improved activity	5 µM	–	–	–	–
CC(C)C(C)C=CC(C)C1CCC2C1(C)CCC1C23C=CC2(CC(OCP(=O)(O)O)CCC12C)OO3 (stereo not shown) [3g]	37 µM	> 20 µM	> 20 µM	poor activity	5 µM	–	–	–	–
CC(C)C(C)C=CC(C)C1CCC2C1(C)CCC1C23C=CC2(CC(OP(=O)([O-])OCC[N+](C)(C)C)CCC12C)OO3 (stereo not shown) [3h]	25 µM	17 µM	> 20 µM	poor activity	21 µM	–	–	–	–
CC(C)C(C)C=CC(C)C1CCC2C1(C)CCC1C23C=CC2(CC(OC(=O)CCCC(=O)O)CCC12C)OO3 (stereo not shown) [3i]	33 µM	18 µM	> 20 µM	poor activity	5 µM	–	–	–	–
C#CCCCC(=O)OC1CCC2(C)C3CCC4(C)C(C(C)C=CC(C)C(C)C)CCC4C34C=CC2(C1)OO4 (stereo not shown) [3j]	8 µM	11 µM	> 13 µM	superior activity across cell lines	4 µM	–	–	–	–
CCCCCOC(=O)Nc1nc(=O)n([C@@H]2O[C@H](C)[C@@H](O)[C@H]2O)cc1F [Capecitabin, reference compound]	5 µM	–	10 µM	–	5 µM	–	–	–	–
COc1cccc2c1C(=O)c1c(O)c3c(c(O)c1C2=O)C[C@@](O)(C(=O)CO)C[C@@H]3O[C@H]1C[C@H](N)[C@H](O)[C@H](C)O1 [Doxorubicin, reference compound]	–	–	–	–	–	1 µM	> 10 µM	1 µM	–
CC(=O)O[C@H]1C(=O)[C@@]2(C)[C@H]([C@H](OC(=O)c3ccccc3)[C@]3(O)C[C@H](OC(=O)[C@H](O)[C@@H](NC(=O)c4ccccc4)c4ccccc4)C(C)=C1C3(C)C)[C@]1(OC(C)=O)CO[C@@H]1C[C@@H]2O [Taxol, reference compound]	–	–	–	–	–	2 µM	> 10 µM	0.01 µM	–
CCCCCCCCCCCCCCCC(=O)O [palmitic acid]	–	–	–	–	–	–	–	–	did not show activity
